These results are taken from patent publication US10793509B2, “Compounds useful in the treatment of neoplastic diseases” (UNIVERSITÄT ZU KÖLN, priority 2013, dated 2020).

Assay [1] concerns phosphorylated NFkappaBp65 protein. Put plainly: Western blot of NFkappaB phosphorylation status in CLL cells. The format is cell-based, human. The settings on record: 3 h. The procedure: CLL cells were treated with B1, B9, B12 and B13 (0.1 μM, 1 μM, 10 μM) for 3 h. Untreated and DMSO (1%) treated cells served as control. GAPDH=loading control.
The BCR signalling pathway plays an important pathogenic role in CLL and lymphomas leading often to a constitutive active NFkappaB (in this state NFkappaB is phosphorylated). Therefore the influence of the derivatives on the phosphorylation status of NFkappaB was analyzed by Western Blot. CLL cells were treated with 0.1 μM, 1 μM or 10 μM of each derivate, respectively, for 3 h. CLL cells were treated with B1, B9, B12 and B13 (0.1 μM, 1 μM, 10 μM) for 3 h. Untreated and DMSO (1%) treated cells served as control. GAPDH=loading control.

Assay [2] deals with EHEB. The experiment in a line: CellTiter-Glo ATP assay, EHEB cell line. The format is cell-based. As to conditions: 24 h, 0.01-1000 μM. The procedure:
(§1) Several cell lines (n=5) were treated with different concentrations of p-NO-ASA, B9, B12 and B13 ranging between 0.01 μM and 1000 μM for 24 hours followed by addition of luminogenic CellTiter-Glo®-reagent. […] For each cell line the order of used compound in the bar chart is from left to right as following: p-NO-ASA, B9, B12, B13.
(§2) Treatment success in CLL may depend on cytogenetic and molecular parameters as for instance del13q or TP53 gene disruption. Therefore, the NO-ASA derivatives were examined on (chronic) B cell lymphoma cell lines with different geno- and phenotypes (JVM3, EHEB, U2932, MEC-1, GRANTA-519). The cells were treated with concentrations between 0.01 and 1000 μM for 24 h followed by the addition of luminogenic CellTiter-Glo® reagent.

The subject of assay [3] is caspases 3 and 7. The experiment in a line: caspase-3/7 assay in CLL cells. It counts as cell-based. As to conditions: Homo sapiens, CLL cell, 6 h, 0.01-20 μM, luminogenic caspase-3/7-substrate, read-out: activation of caspases 3 and 7, EC50. From the text:
FIG. 8 depicts the involvement of caspase-mediated apoptosis in CLL cells upon treatment with p-NO-ASA, B9, B12 and B13. Representative blots of 3 independent experiments are shown. Untreated and DMSO (1%) treated cells served as control. beta-actin=loading control (FIG. 8A). para-NO-ASA and B9 induced a concentration-dependent increase in caspase-3/7-activation (FIG. 8B).
To determine whether the toxicity on CLL cells is due to caspase-mediated apoptosis, the cleavage of PARP (Poly(ADP-ribose)-Polymerase 1) and XIAP (X-linked inhibitor of apoptosis) was analyzed by immunoblot. CLL cells were cultured alone, with 1% DMSO or with EC50 of p-NO-ASA, meta-NO-ASA, B9, B12 and B13 for 24 h followed by protein lysation and western blot analysis using antibodies to detect prognostic apoptotic proteins (XIAP, PARP). […] All compounds tested induced PARP and XIAP cleavage (FIG. 8A). Further a caspase-3/7 assay was carried out. CLL cells were incubated with para-NO-ASA and B9 in different concentrations ranging from 0.01 μM to 20 μM for 6 h followed by addition of luminogenic caspase-3/7-substrate. This indicates the reduction of the survival of CLL cells upon treatment with p-NO-ASA and B9 due to the induction of caspase-mediated apoptosis.

Assay [4] has as its system JVM-3. The experiment in a line: CellTiter-Glo ATP assay, JVM-3 cell line. The format is cell-based, human. The settings on record: 24 h, 0.01-1000 μM. The procedure:
as §1, §2

In assay [5] the test system is MEC-1. The experiment in a line: CellTiter-Glo ATP assay, MEC-1 cell line. As to conditions: 24 h. The format is cell-based. How it is done:
as §1, §2

For assay [6], the system named is GRANTA-519. The experiment in a line: CellTiter-Glo ATP assay, GRANTA-519 cell line. It counts as cell-based. As to conditions: 24 h. How it is done:
as §1, §2

For assay [7], the system named is peripheral blood mononuclear cells (PBMCs) of healthy donors. The experiment in a line: AnnexinV/PI assay on PBMCs of healthy donors. The format is cell-based. As to conditions: Homo sapiens, PBMC; 24 h incubation, 0.01-100 μM, 5*10^6 cells/ml, normalized to DMSO control; read-out: AnnexinV/PI assay EC50 PBMCs. The procedure:
(§3) PBMCs or CLL cells (5*10^6 cells/ml) were incubated for 24 h with different compounds at concentrations from 0.01 to 100 μM. Cell survival was normalized to DMSO control [vehicle]. See Example 1.
(§4) Primary CLL or peripheral blood mononuclear cells of healthy donors (5*10^6/ml) were incubated for 24 h with different compounds according to the invention and NO-ASA as a control. The compounds were added in different concentrations, in particular in concentrations from 0.01-100 μM. Cell survival was assessed by AnnexinV/PI assay (Kit commercially available, e.g. by Biotium Inc, USA; or Phoenix Flow Systems, US), the results were normalized to DMSO control [vehicle] and dose response curves were calculated using a non-linear regression model.

For assay [8], the system named is U2932. Put plainly: CellTiter-Glo ATP assay, U2932 cell line. It counts as cell-based. As to conditions: 24 h, 0.01-1000 μM. The procedure: as §1, §2
Assay [9] relates to SW480, MelJuso, HCC44, SH2 and COLO704 cell lines. It counts as cell-based. As to conditions: 24 h, 0.01-100 μM. How it is done: In the following experiment the possible therapeutic window for NO-ASA derivatives was investigated. […] The melanoma cell line MelJuso, the colon carcinoma cell line SW480, the small cell lung cancer cell line HCC44, the ovarian adenocarcinoma cell line COLO704 and the acute myeloid leukemia cell line SH2 were treated with concentrations of p-NO-ASA and B9, B12 and B13 in a range between 0.01 μM and 100 μM for 24 h, followed by addition of luminogenic CellTiter-Glo® reagent.

Assay [10] deals with Primary CLL cells. Put plainly: AnnexinV/PI assay on primary CLL cells. It counts as cell-based, human. The procedure: as §3, §4
Where [11] appears, read: 0.01-1000 μM, compared to B9, B12, B13.

On to `CC(=O)Oc1ccccc1C(=O)Oc1ccc(CO[N+](=O)[O-])cc1` [B1, 4-(nitrooxy)methyl phenyl-2-acetoxy benzoate, reference compound], for which the “reduction of NFkappaB activity (phosphorylated NFkappaBp65)” value in assay [1] (CLL cells, 0.1, 1, 10 μM) is listed as “concentration dependent reduction”. Also, in assay [1] (CLL cells), the “concentration inducing the reduction of NFkappaB p65 protein” value is “twofold concentration”. Further, in assay [2], the “ATP content in EHEB” value is listed as “reduced ATP content”. Also, the EC50 was found to be 1.84 µM in [3]; 53.4 µM in [5] (Homo sapiens, MEC1, CellTiter-Glo); 22.2 µM in assay [6] (Homo sapiens, Granta-519, CellTiter-Glo); 47.2 µM in assay [7]; 6.7 µM in [10] (Homo sapiens, CLL cell, 24 h incubation, 0.01-100 μM, 5*10^6 cells/ml, normalized to DMSO control, read-out: AnnexinV/PI assay EC50 Primary CLL). Also, in [4], the “ATP content in JVM-3” value is “reduced ATP content”. Also, in [5] (setting [11]), the “effectiveness in MEC-1 (ATP content)” value is listed as “significantly less effective”. Further, the “effectiveness in GRANTA-519 (ATP content)” value in assay [6] (setting [11]) is given as “significantly less effective”. Further, the “ATP content in U2932” value in assay [8] is “reduced ATP content”. Further, in assay [9], the “ATP content in SW480, MelJuso, HCC44, SH2 and COLO704 cell lines” value is given as “reduced ATP content”. The “selectivity for CLL cells compared to PBMCs” value in assay [10] (FIG. 3, sensitivity of CLL cells vs PBMCs, 24 h) is “selective for CLL cells”.
